Experimental data taken from patent US9464063B2, “Benzo [B] [1,4] oxazin derivatives as calcium sensing receptor modulators” (LUPIN ATLANTIS HOLDINGS SA, priority 2011, dated 2016).
Counter-ions that a name gives are not always drawn.

Target: T1, Calcium sensing receptor (hCaSR) (Homo sapiens, UniProt P41180)
T1 construct: expressed in transfected cells
T1 sequence (P41180 20-1078): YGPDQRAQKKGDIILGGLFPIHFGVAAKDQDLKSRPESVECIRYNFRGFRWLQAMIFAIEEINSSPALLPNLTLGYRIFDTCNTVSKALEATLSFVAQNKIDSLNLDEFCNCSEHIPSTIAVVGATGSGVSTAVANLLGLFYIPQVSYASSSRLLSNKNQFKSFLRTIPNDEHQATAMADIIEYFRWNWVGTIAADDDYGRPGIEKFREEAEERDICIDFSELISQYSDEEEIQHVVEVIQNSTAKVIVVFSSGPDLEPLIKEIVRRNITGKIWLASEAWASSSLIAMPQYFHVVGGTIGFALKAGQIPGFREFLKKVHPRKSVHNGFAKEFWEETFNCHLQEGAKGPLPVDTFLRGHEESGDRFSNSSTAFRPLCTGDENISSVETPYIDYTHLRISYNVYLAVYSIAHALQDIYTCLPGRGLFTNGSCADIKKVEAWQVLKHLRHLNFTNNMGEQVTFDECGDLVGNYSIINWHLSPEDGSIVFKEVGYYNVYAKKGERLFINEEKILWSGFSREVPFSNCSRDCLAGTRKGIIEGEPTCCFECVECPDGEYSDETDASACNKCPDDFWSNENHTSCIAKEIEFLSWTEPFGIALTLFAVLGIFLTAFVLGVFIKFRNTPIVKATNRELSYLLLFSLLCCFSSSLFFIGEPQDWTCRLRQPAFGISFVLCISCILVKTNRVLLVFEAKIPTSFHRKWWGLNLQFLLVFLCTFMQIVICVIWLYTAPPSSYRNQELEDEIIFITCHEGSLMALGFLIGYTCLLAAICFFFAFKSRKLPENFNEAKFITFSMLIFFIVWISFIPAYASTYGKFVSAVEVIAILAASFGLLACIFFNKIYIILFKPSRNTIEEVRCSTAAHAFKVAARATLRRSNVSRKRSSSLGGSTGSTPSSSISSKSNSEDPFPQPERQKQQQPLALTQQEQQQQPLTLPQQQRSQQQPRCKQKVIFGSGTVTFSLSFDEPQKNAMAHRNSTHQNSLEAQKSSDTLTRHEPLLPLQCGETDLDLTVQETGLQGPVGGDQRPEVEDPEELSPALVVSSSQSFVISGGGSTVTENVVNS
Experiment: In-vitro assay of calcimimetics through modulation of calcium sensing receptor: increase in intracellular calcium [Ca2+]i, FLIPR
Format: cell-based
Conditions: stably transfected HEK293 cells expressing hCaSR; Fluo4NW dye; 0.3 mM CaCl2; 8-point assay; read-out: EC50 Range
Procedure: In-Vitro Assay Method of Calcimemtics Through Modulation of Calcium Sensing Receptor (CaSR):
The ability of the compounds to modulate Calcium sensing receptor is determined by measuring an increase in intracellular calcium [Ca^2+]i. Stably transfected HEK293 cells expressing hCaSR_pTriEx-3 hygro vector are developed. Cells are grown overnight on a 96-well plate to 80% confluency in Ham's F12 containing 20% FBS at 37° C., 5% CO2. Subsequently, cells are washed extensively with 20 mM HEPES buffer containing 126 mM NaCl, 1 mM MgCl2 and 4 mM KCl to remove serum components that might interfere with the assay. Cells are loaded with calcium sensing Fluo4NW dye in HEPES base buffer containing 0.1% BSA and 1 mg/ml glucose for 30 minutes to measure changes in intracellular calcium. The activities of the compounds are measured in FLIPR using 0.3 mM CaCl2 in 20 mM HEPES base buffer. The effectiveness of the compound to modulate receptor activity is determined by calculating the EC50 responses for that compound in an 8-point assay and plotted using GraphPad Prism 5.

Row | EC50 | SMILES
1 | < 0.02 µM | Cc1ccc(N2CC(CN[C@H](C)c3cccc4ccccc34)Oc3ccccc32)cc1C(=O)NCC(=O)O (single isomer, unassigned) [Example 79b, hydrochloride]
2 | 0.05 to 0.2 µM | Cc1ccc(N2CC(C)(CN[C@H](C)c3cccc4ccccc34)Oc3ccccc32)cc1C(=O)O (single isomer, unassigned) [Example 86a, hydrochloride]
3 | 0.02 to 0.05 µM | Cc1ccc(N2C(=O)C(CN[C@H](C)c3cccc4ccccc34)Oc3ccccc32)cc1C(=O)O (single isomer, unassigned) [Example 87b, hydrochloride]
4 | < 0.02 µM | Cc1ccc(N2CC(CCN[C@H](C)c3cccc4ccccc34)Oc3ccccc32)cc1C(=O)O (single isomer, unassigned) [Example 133b, hydrochloride]
5 | 0.02 to 0.05 µM | Cc1ccc(N2CC(CCN[C@H](C)c3cccc4ccccc34)Oc3c(F)cccc32)cc1C(=O)O (single isomer, unassigned) [Example 159a, hydrochloride]
6 | < 0.02 µM | C[C@@H](NCCC1CN(c2cccc(C(=O)O)c2)c2cccc(F)c2O1)c1cccc2ccccc12 (single isomer, unassigned) [Example 160a, hydrochloride]
7 | < 0.02 µM | C[C@@H](NCCC1CN(c2ccc(OCC(=O)O)cc2)c2ccc(F)cc2O1)c1cccc2ccccc12 (single isomer, unassigned) [Example 161a, hydrochloride]
8 | < 0.02 µM | C[C@@H](NCCC1CN(c2ccc(OCC(=O)O)cc2)c2cccc(F)c2O1)c1cccc2ccccc12 (single isomer, unassigned) [Example 164a, hydrochloride]
9 | < 0.02 µM | Cc1ccc(N2CC(CCN[C@H](C)c3cccc4ccccc34)Oc3ccc(F)cc32)cc1C(=O)O (single isomer, unassigned) [Example 166a, hydrochloride]
10 | < 0.02 µM | C[C@@H](NCCC1CN(c2cccc(C(=O)O)c2)c2cc(F)ccc2O1)c1cccc2ccccc12 (single isomer, unassigned) [Example 167a]
11 | 0.02 to 0.05 µM | C[C@@H](NCCC1CN(c2cccc(C(=O)O)c2)c2cc(F)ccc2O1)c1cccc2ccccc12 (single isomer, unassigned) [Example 167b]
12 | < 0.02 µM | C[C@@H](NCCC1CN(c2ccc(OCC(=O)O)cc2)c2cc(F)ccc2O1)c1cccc2ccccc12 (single isomer, unassigned) [Example 168a]
13 | < 0.02 µM | C[C@@H](NCCC1CN(c2cccc(OCC(=O)O)c2)c2cc(F)ccc2O1)c1cccc2ccccc12 (single isomer, unassigned) [Example 169a, hydrochloride]
14 | < 0.02 µM | C[C@@H](NCCC1CN(c2cccc(OCC(=O)O)c2)c2c(F)cccc2O1)c1cccc2ccccc12 (single isomer, unassigned) [Example 171a, hydrochloride]
15 | < 0.02 µM | C[C@@H](NCCC1CN(c2ccc(OCC(=O)O)cc2)c2c(F)cccc2O1)c1cccc2ccccc12 (single isomer, unassigned) [Example 172a, hydrochloride]
16 | 0.05 to 0.2 µM | C[C@@H](NCC1CN(c2ccc(C(=O)O)cc2)c2ccccc2O1)c1cccc2ccccc12 (stereo partly drawn) [Example 6, 4-(2-((((R)-1-(Naphthalen-1-yl)ethyl)amino)methyl)-2H-benzo[b][1,4]oxazin-4(3H)-yl)benzoic acid hydrochloride]
17 | 0.02 to 0.05 µM | C[C@@H](NCC1CN(c2cccc(C(=O)O)c2)c2ccccc2O1)c1cccc2ccccc12 (stereo partly drawn) [Example 41, 3-(2-((((R)-1-(Naphthalen-1-yl)ethyl)amino)methyl)-2H-benzo[b][1,4]oxazin-4(3H)-yl)benzoic acid hydrochloride]
18 | 0.05 to 0.2 µM | C[C@@H](NCC1CN(c2ccc(CCC(=O)O)cc2)c2ccccc2O1)c1cccc2ccccc12 (stereo partly drawn) [Example 48, 3-(4-(2-((((R)-1-(naphthalen-1-yl)ethyl)amino)methyl)-2H-benzo [b][1,4]oxazin-4(3H)-yl)phenyl)propanoic acid]
19 | 0.02 to 0.05 µM | C[C@@H](NCC1CN(c2cccc(OCC(=O)O)c2)c2ccccc2O1)c1cccc2ccccc12 (stereo partly drawn) [Example 50, 2-(3-(2-((((R)-1-(naphthalen-1-yl)ethyl)amino)methyl)-2H-benzo[b] [1,4]oxazin-4(3H)-yl)phenoxy)acetic acid hydrochloride]
20 | 0.05 to 0.2 µM | COc1cc(C(=O)O)cc(N2CC(CN[C@H](C)c3cccc4ccccc34)Oc3ccccc32)c1 (stereo partly drawn) [Example 54, 3-Methoxy-5-(2-((((R)-1-(naphthalen-1-yl)ethyl)amino)methyl)-2H-benzo [b][1,4]oxazin-4(3H)-yl) benzoic acid hydrochloride]
21 | 0.05 to 0.2 µM | C[C@@H](NCC1CN(c2cccc(CC(=O)O)c2)c2ccccc2O1)c1cccc2ccccc12 (stereo partly drawn) [Example 69, 2-(3-(2-((((R)-1-(Naphthalen-1-yl)ethyl)amino)methyl)-2H-benzo [b][1,4]oxazin-4(3H)-yl)phenyl)acetic acid hydrochloride]
22 | 0.05 to 0.2 µM | C[C@@H](NCC1CN(c2cc(F)cc(C(=O)O)c2)c2ccccc2O1)c1cccc2ccccc12 (stereo partly drawn) [Example 72, 3-Fluoro-5-(2-((((R)-1-(naphthalen-1-yl)ethyl)amino)methyl)-2H-benzo [b][1,4]oxazin-4(3H)-yl) benzoic acid hydrochloride]
23 | 0.02 to 0.05 µM | Cc1ccc(N2CC(CN[C@H](C)c3cccc4ccccc34)Oc3cc(F)ccc32)cc1C(=O)O (stereo partly drawn) [Example 84, 5-(7-Fluoro-2-((((R)-1-(naphthalen-1-yl)ethyl)amino)methyl)-2H-benzo[b][1,4]oxazin-4(3H)-yl)-2-methyl benzoic acid hydrochloride]
24 | 0.05 to 0.2 µM | Cc1cc(N2CC(CCN[C@H](C)c3cccc4ccccc34)Oc3ccccc32)ccc1C(=O)O (stereo partly drawn) [Example 134a, 2-Melhyl-4-(2-(2-(((R-1-(naphthalen-1-yl)ethyl)amino)ethyl)-2H-benzo[b] [1,4]oxazin-4(3H)-yl)benzoic acid hydrochloride]
25 | < 0.02 µM | C[C@@H](NCCC1CN(c2ccc(C(F)(F)F)c(C(=O)O)c2)c2ccccc2O1)c1cccc2ccccc12 (stereo partly drawn) [Example 135a, 5-(2-(2-(((R)-1-(Naphthalen-1-yl)ethyl)amino)ethyl)-2H-benzo [b][1,4]oxazin-4(3H)-yl)-2-(trifluoromethyl) benzoic acid hydrochloride]
26 | 0.05 to 0.2 µM | CC(C)c1ccc(N2CC(CCN[C@H](C)c3cccc4ccccc34)Oc3ccccc32)cc1C(=O)O (stereo partly drawn) [Example 137a, 2-Isopropyl-5-(2-(2-(((R)-1-(naphthalen-1-yl)ethyl)amino)ethyl)-2H-benzo[b] [1,4]oxazin-4(3H)-yl) benzoic acid hydrochloride]
27 | < 0.02 µM | C[C@@H](NCCC1CN(c2cccc(OCC(=O)O)c2)c2ccccc2O1)c1cccc2ccccc12 (stereo partly drawn) [Example 138a, 2-(3-(2-(2-(((R)-1-(Naphthalen-1-yl)ethyl)amino)ethyl)-2H-benzo[b][1,4]oxazin-4(3H)-yl)phenoxy)aceticacid hydrochloride]
28 | < 0.02 µM | C[C@@H](NCCC1CN(c2ccc(CCC(=O)O)cc2)c2ccccc2O1)c1cccc2ccccc12 (stereo partly drawn) [Example 139a, 3-(4-(2-(2-(((R)-1-(Naphlhalen-1-yl)ethyl)amino)ethyl)-2H-benzo [b][1,4]oxazin-4(3H)-yl)phenyl)propanoic acid hydrochloride]
29 | < 0.02 µM | COc1ccc(N2CC(CCN[C@H](C)c3cccc4ccccc34)Oc3ccccc32)cc1C(=O)O (stereo partly drawn) [Example 141a, 2-Methoxy-5-(2-(2-(((R)-1-(naphthalen-1-yl)ethyl)amino)ethyl)-2H-benzo[b] [1,4]oxazin-4(3H)-yl) benzoic acid hydrochloride]
30 | 0.05 to 0.2 µM | C[C@@H](NCCC1CN(c2ccc(CC(=O)O)cc2)c2ccccc2O1)c1cccc2ccccc12 (stereo partly drawn) [Example 143a, 2-(4-(2-(2-(((R)-1-(Naphthalen-1-yl)ethyl)amino)ethyl)-2H-benzo[b][1,4]oxazin-4(3H)-yl)phenyl) acetic acid hydrochloride]
